{"source": "ChEMBL document CHEMBL1143904", "about": "“Beta-lactam congeners of orlistat as inhibitors of fatty acid synthase” (Bioorg Med Chem Lett, 2008)", "note": "Active and inactive are the calls of the source. No cut-off for these calls is given here."}
{"assay": "Inhibition of recombinant fatty acid synthase thioesterase domain by fluorogenic assay", "units": {"IC50": "µM"}}
{"smiles": "CCCCCC[C@@H]1C(=O)N[C@H]1C[C@@H](O)CCCCC", "IC50": 67.6}
{"smiles": "CCCCCCCCCCC[C@H](C[C@@H]1[C@@H](CCCCCC)C(=O)N1OCc1ccccc1)OC(=O)CNC=O", "IC50": 39.2}
{"smiles": "CCCCCCCCCCC[C@H](C[C@@H]1[C@@H](CCCCCC)C(=O)N1OCc1ccccc1)O[Si](C)(C)C(C)(C)C", "IC50": 97.4}
{"smiles": "CCCCCC[C@@H]1C(=O)N(OCc2ccccc2)[C@H]1C[C@@H](O)CCCCC", "IC50": 50.5}
{"smiles": "CCCCCCCCCCC[C@H](O)C[C@H]1[C@H](CCCCCC)C(=O)N1OCc1ccccc1", "IC50": 86.8}
{"smiles": "CCCCCCCCCCC[C@@H](C[C@H]1[C@H](CCCCCC)C(=O)N1OCc1ccccc1)OC(=O)CNC=O", "IC50": 68.9}
{"smiles": "CCCCCCCCCCC[C@H](C[C@H]1NC(=O)[C@@H]1CCCCCC)OC(=O)CNC=O", "Activity": "inactive"}
{"smiles": "CCCCCCCCCCC[C@@H](C[C@@H]1NC(=O)[C@H]1CCCCCC)OC(=O)CNC=O", "Activity": "inactive"}
{"smiles": "CCCCCCCCCCC[C@@H](O)C[C@@H]1[C@@H](CCCCCC)C(=O)N1OCc1ccccc1", "IC50": 61.2}
{"smiles": "CCCCCCCCCCC[C@@H](C[C@H]1[C@H](CCCCCC)C(=O)N1OCc1ccccc1)O[Si](C)(C)C(C)(C)C", "IC50": 8.6}
{"smiles": "CCCCCC[C@@H]1C(=O)N(OCc2ccccc2)[C@H]1C[C@H](CCCCC)OC(=O)[C@@H](NC=O)C(C)C", "IC50": 58.2}
